Reference: patent publication US8298781B2, “Compositions and methods for characterizing and regulating olfactory sensation” (Duke University, priority 2007, dated 2012)
Where a chain is given by its changes, count along the chain named.

Experiments:
Type in all cases: cell-based
OR7D4 RT = molecular target: T1, OR7D4 RT (Homo sapiens, UniProt Q8NG98); experiment: Luciferase assay of odorant receptor activation in Hana3A cells, OR7D4 RT; design: dose or concentration left out as unconfirmed; conditions: for response of OR7D4 RT (normalized luciferase), ligand specificity panel: panel of 66 odors and 2 solvents at or 1,130,000 dilution
T1 construct: expressed in transfected cells; host or cells: Hana3A (HEK293T-derived)
T1 sequence (Q8NG98 1-312): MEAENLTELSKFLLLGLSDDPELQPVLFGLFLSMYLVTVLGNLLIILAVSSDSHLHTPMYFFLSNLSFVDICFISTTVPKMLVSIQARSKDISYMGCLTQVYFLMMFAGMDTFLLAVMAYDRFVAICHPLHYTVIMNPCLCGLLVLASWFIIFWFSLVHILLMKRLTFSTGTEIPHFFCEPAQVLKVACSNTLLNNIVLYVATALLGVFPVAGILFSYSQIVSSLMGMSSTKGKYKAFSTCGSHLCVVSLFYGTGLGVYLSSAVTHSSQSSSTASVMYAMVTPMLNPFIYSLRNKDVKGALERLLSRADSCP
Text: Heterologous expression of human odorant receptors. 423 human odorant receptors including 337 predicted functional receptors were cloned. Odorant receptors that contained the first 20 amino acid of human rhodopsin (see, e.g., Krautwurst, D., et al., Cell 95, 917-926 (1998); herein incorporated by reference in its entirety) in pCl (Promega) were expressed in the Hana3A cell line along with a short form of mRTP1, RTP1S, (M37 to the C-terminal end), which enhanced functional expression of the odorant receptors. For immunocytochemistry, cells were fixed, permeabilized and incubated with monoclonal anti-rhodopsin antibody, 4D2 (see, e.g., Laird, D. W., et al., Invest Opthalmol Vis Sci 29.419428 (1988); herein incorporated by reference in its entirety), followed by Cy3-conjugated donkey anti-mouse IgG (Jackson Immunologicals). For FACS analysis, PE-conjugated donkey anti-mouse IgG (Jackson Immunologicals) was used. Western blot analysis was performed according to Mini-Protean 2 Cell (Bio-Rad) protocol. ECL (Amersham) was used for detecting proteins on membranes. After the initial exposure, the membrane was incubated with stripping buffer (25 mM Glycine-HCl [pH2], 1% SDS, 25 mM Glycine, 0.036N HCl, 1% SDS) and incubated with rabbit anti-GFP (Invitrogen). Luciferase assays were performed as described (see, e.g., Saito, H., et al., Cell 119:679-691 (2004); incorporated herein by reference in its entirety). […]
(§1) Luciferase assay and data analysis. […] Luminescence was measured using Wallac Victor 1420 (Perkin-Elmer). Normalized luciferase activity was calculated by the formula [luc(N)-luc(lowest)]/luc(highest)/RL (N) where luc(N)=luminescence of luciferase of a certain well; luc(lowest)=lowest luminescence of luciferase of a plate or a set of plates; luc(highest)=highest luminescence of luciferase of a plate or a set of plates; RL(N)=luminescence of Renilla luciferase of a certain well. Data was analyzed with Microsoft Excel and GraphPad Prism 4.

OR7D4 P79L = molecular target: T2, OR7D4 P79L (Homo sapiens, UniProt Q8NG98, P79L); experiment: Luciferase assay dose response, OR7D4 P79L; conditions: all concentrations tested
T2 construct: expressed in transfected cells; host or cells: Hana3A (HEK293T-derived)
T2 sequence (Q8NG98 1-312 P79L): T1 sequence (Q8NG98 1-312) with P79L
Text: (§2) Heterologous expression of human odorant receptors. 423 human odorant receptors including 337 predicted functional receptors were cloned. Odorant receptors that contained the first 20 amino acid of human rhodopsin (see, e.g., Krautwurst, D., et al., Cell 95, 917-926 (1998); herein incorporated by reference in its entirety) in pCl (Promega) were expressed in the Hana3A cell line along with a short form of mRTP1, RTP1S, (M37 to the C-terminal end), which enhanced functional expression of the odorant receptors. For immunocytochemistry, cells were fixed, permeabilized and incubated with monoclonal anti-rhodopsin antibody, 4D2 (see, e.g., Laird, D. W., et al., Invest Opthalmol Vis Sci 29.419428 (1988); herein incorporated by reference in its entirety), followed by Cy3-conjugated donkey anti-mouse IgG (Jackson Immunologicals). […]
as §1

OR7D4 S84N = molecular target: T3, OR7D4 S84N (Homo sapiens, UniProt Q8NG98, S84N); experiment: Luciferase assay dose response, OR7D4 S84N; conditions: exceeding the activity of RT variant at every concentration tested
T3 sequence (Q8NG98 1-312 S84N): T1 sequence (Q8NG98 1-312) with S84N
Text: as §2, §1

| SMILES | response of OR7D4 RT (normalized luciferase), ligand specificity panel (OR7D4 RT) | dose-response function of OR7D4 P79L in vitro (OR7D4 P79L) | dose-response sensitivity of OR7D4 S84N in vitro (OR7D4 S84N) | response of OR7D4 in screen of human odorant receptor panel (OR7D4 RT; Hana3A cells, 337 human odorant receptors, stimulated with androstenone) |
| --- | --- | --- | --- | --- |
| C[C@@]12C=CC[C@H]1[C@@H]1CCC3=CC(=O)CC[C@]3(C)[C@H]1CC2 [androstadienone, androsta-4,16-dien-3-one] | responded selectively | severely impaired function | remarkable sensitivity | – |
| C[C@]12CCC(=O)C[C@@H]1CC[C@@H]1[C@@H]2CC[C@]2(C)C=CC[C@@H]12 [androstenone, 5α-androst-16-en-3-one] | responded selectively | severely impaired function | remarkable sensitivity | robust responses |
